Target: T1, 15-hydroxyprostaglandin dehydrogenase [NAD(+)] (Homo sapiens, UniProt P15428)
T1 sequence (P15428 whole entry): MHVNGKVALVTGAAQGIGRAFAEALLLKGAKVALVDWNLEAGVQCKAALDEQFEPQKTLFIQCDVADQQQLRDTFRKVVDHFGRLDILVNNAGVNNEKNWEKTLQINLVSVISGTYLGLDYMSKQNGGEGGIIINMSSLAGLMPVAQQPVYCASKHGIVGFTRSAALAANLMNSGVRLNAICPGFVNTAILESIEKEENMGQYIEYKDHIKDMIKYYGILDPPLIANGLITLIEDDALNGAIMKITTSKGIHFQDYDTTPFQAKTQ
Test: Inhibition of human 15-PGDH expressed in Escherichia coli using PGE2 as substrate and NAD+ as coenzyme assessed as formation of NADH by spectrophotometric analysis

IC50: 51 nM
Structure (SMILES): O=C1N=C(O)SC1=Cc1ccc(OCCC2CCCCC2)cc1

— BindingDB's records for doi:10.1021/jm200390u (Chosun University, 2011)
